Assay results from patent publication US20060229276A1, “Use of glycosoaminoglycans for the prevention and treatment of sepsis” (priority 2004, published 2006).
“Also recorded” adds a separate entry of the source. Like-named read-outs stand apart in the source and are kept apart here.

Assays:
S. aureus strain K2 = test: S. aureus strain K2-induced sepsis in mice (survival, weight, clinical appearance); settings: for survival versus PBS control: 20 μg/mouse s.c.
Protocol: FIGS. 5A-B show the dose effect of dermatan sulfate on the survival of mice infected with a […] dose S. aureus. S. aureus K2 was grown to log phase and set via a nephelometer to an LD60-80% (30 million cfu per mouse in FIG. 5A; 35 million cfu per mouse in FIG. 5B). Balb/c mice were infected intravenously (0.5 ml) on day zero. Animals were then inoculated subcutaneously with low molecular weight heparin or dermatan sulfate (20 μg/mouse) at two hour and subsequently every twenty-four hours. Control group mice were injected with PBS. Clinical appearance and weight was recorded daily.
FIGS. 6A-B show the dose effect of dermatan sulfate (DS) on mice infected with S. aureus strain K2. S. aureus strain K2 was grown to log phase and set via a nephelometer to a lethal concentration of 40 million cfu per mouse. Balb/c mice were infected intravenously with 40 m cfu's of S. aureus K2. Treatment groups were injected subcutaneously with increasing doses of dermatan sulfate (0.1 to 12.5 mg/kg body weight or 2 to 250 μg of dermatan sulfate) at two hour and subsequently every twenty-four hours. Control group mice were injected subcutaneously with PBS. Clinical appearance and weight were recorded daily. […] In FIG. 6A, n=15 in PBS and n=10 for all doses of dermatan sulfate and in FIG. 6B, n=10 for both the doses of dermatan sulfate.
FIGS. 7A-B show the dose effect of dermatan sulfate (DS) on mice infected with S. aureus strain K2. S. aureus strain K2 was grown to log phase and set via a nephelometer to a lethal concentration of 40 million cfu per mouse. Balb/c mice were infected intravenously with 40 m cfu's of S. aureus K2 on day 0. Treatment groups were injected subcutaneously with increasing doses of dermatan sulfate (0.025 to 25 mg/kg body weight or 0.5 to 500 μg of dermatan sulfate) at two hour and subsequently every twenty-four hours. Control group mice were injected subcutaneously with PBS. Clinical appearance and weight were recorded daily.

S. aureus strain CYL574 = test: S. aureus strain CYL574-induced septic death in mice (survival); assay type: in vivo, Balb/c mice
Protocol: Mice in control group were injected intraperitoneally with PBS.
Experiments evaluating the effects of low molecular weight heparin in preventing mortality and/or prolonging survival were conducted in an animal model of S. aureus-induced septic death.

[1] = in vivo, cited from earlier work
S. aureus = assay type: in vivo, mice; settings: 100 or 50 μg per mouse
Protocol: The therapeutic index of low molecular weight heparin was also evaluated by using several-fold concentrations in excess of the clinical dose (1 mg/kg or 20 μg/mouse). […] These adverse effects included hematuria, subcutaneous hematomas, and bleeding at the site of injection. The majority of the mice that died in the low molecular weight heparin group were documented with at least one episode of bleeding. […] Insight into the actual cause of bleeding can be gained by examining the coagulation profiles.

[2] = Toxicity of high dose dermatan sulfate in non infected control mice; assay type: in vivo; settings: 500 μg/day
Protocol: A very high dose of approximately 25 mg/kg body weight is detrimental to the infected mice after the onset of sepsis (FIG. 7A). […] But, a high dose of dermatan sulfate was non-toxic to non infected control mice treated with 500 μg/day of dermatan sulfate.

Fibrinogen = Fibrinogen levels in plasma of S. aureus K2-infected mice; assay type: in vivo, Balb/c mice; settings: 50-500 μg/day s.c.; 48 hours after infection
Protocol: (§1) Control group mice were injected subcutaneously with PBS or dermatan sulfate (50 or 500 μg dermatan sulfate per mouse per day). Mice were bled at 48 hours after infection via tail vein. Blood collected in 0.12 M sodium citrate in a 9:1 ratio of blood to citrate. Samples were centrifuged and plasma collected and frozen at −20° C. until use. Plasmas were diluted 1:9 in Owrens buffer for analysis. Fibrinogen levels were determined utilizing control standards as measured by an XM coagulometer according to manufacturer's instructions.
Plasma samples from S.aureus infected mice were prepared as described in example 7. Fibrinogen levels were determined utilizing control standards using an XM coagulometer according to manufacturer's instructions.

protein C = test: Protein C levels in plasma of S. aureus K2-infected mice; assay type: in vivo, Balb/c mice; settings: 48 hours
Protocol: as §1, with “Balb/c mice were infected intravenously with 40 million cfu's of S. aureus K2 on day zero. […] Control” for “Control”, “Protein C” for “Fibrinogen”, “as percent levels based on” for “determined utilizing control”, “and its ability to prolong partial thromboplastin time. Clotting assay was evaluated using” for “as measured by”
Plasma samples from S.aureus infected mice were prepared as described in Example 7. Protein C in the plasma was determined as percent levels based on standards and their ability to prolong partial thromboplastin time. Clotting assay was evaluated using an XM coagulometer according to manufacturer's instructions.

[3] = test system: intrinsic pathway of coagulation; test: Partial thromboplastin time in plasma of S. aureus K2-infected mice; assay type: in vivo, Balb/c mice; settings: 48 hours after infection
Protocol: as §1, with “FIGS. 8A-B show the effect of dermatan sulfate (DS) on the prothrombin time (FIG. 8A) and partial thromboplastin time (FIG. 8B) of mice treated with dermatan sulfate after the onset of S.aureus-induced sepsis. […] Control” for “Control”, “1:3” for “1:9”, “Prothrombin time (PT) and partial thromboplastin time (PTT)” for “Fibrinogen levels”, “utilizing” for “utilizing control standards as measured by”
The effect of dermatan sulfate on the intrinsic pathway of coagulation was determined by measuring the active partial thromboplastin time. Plasma samples from S.aureus infected mice was prepared as described in example 7. Partial thromboplastin time (PTT) was determined utilizing an XM coagulometer according to the manufacturer's instructions.

[4] = test system: extrinsic pathway of coagulation; test: Prothrombin time in plasma of S. aureus K2-infected mice; assay type: in vivo, Balb/c mice; settings: 48 hours after infection
Protocol: as §1, with “FIGS. 8A-B show the effect of dermatan sulfate (DS) on the prothrombin time (FIG. 8A) and partial thromboplastin time (FIG. 8B) of mice treated with dermatan sulfate after the onset of S.aureus-induced sepsis. […] Control” for “Control”, “1:3” for “1:9”, “Prothrombin time (PT) and partial thromboplastin time (PTT)” for “Fibrinogen levels”, “utilizing” for “utilizing control standards as measured by”
To ascertain the physiological pathway that is modulated by dermatan sulfate, coagulation profiles of mice treated with low and high concentrations of the compound in the context of S. aureus-induced sepsis was assessed. The extrinsic pathway of coagulation was first evaluated by measuring the prothrombin time (PT) in the plasma of mice forty eight hours after infection with S. aureus and treatment with dermatan sulfate. […] Prothrombin time (PT) was determined utilizing an XM coagulometer according to the manufacturer's instructions.

[5] = 30 million cfu K2, FIG. 5A, n=15
[6] = 35 million cfu K2, FIG. 5B, n=20
[7] = infected mice treated with 50 or 500 μg per mouse s.c.

Substance: chondroitin sulfate A
- effect of continued daily high doses in infected mice (S. aureus strain K2; s.c., continued daily high doses): detrimental
- survival as compared to infected mice treated with PBS (S. aureus strain K2; s.c., greater than 10 mg/kg body weight or greater than 200 μg per mouse, FIG. 4): prolonged survival
- survival (S. aureus strain K2; s.c., very high doses >100 mg/kg body weight, first days after onset of sepsis): augmented survival

Substance: low molecular weight heparin
- survival rate (S. aureus strain CYL574; high dose 5 mg/kg i.p., after infection, p=0.0017 versus control): 92.8%
- survival rate (S. aureus strain CYL574; prophylaxis dose 1 mg/kg i.p., 14 days after infection, PBS control 33.3%): 66.7%
- survival versus PBS control (S. aureus strain K2; [5]): higher rate a survival than the control group
- survival versus PBS control (S. aureus strain K2; [6]): higher survival rate than the PBS-treated mice
- survival rate (S. aureus strain K2; 1 mg/kg i.p., 72 hr, supra-lethal dose K2, PBS control 20%): 70%
- survival rate (S. aureus strain K2; 1 mg/kg i.p., 96 hr, supra-lethal dose K2, PBS control 0%, p=0.01): 60%
- survival rate (S. aureus strain K2; 5 mg/kg i.p., 96 hours after infection, PBS control 0%): 22.2%
- survival, low versus high doses (S. aureus strain K2; s.c., approximately <0.5 mg/kg per day compared with >1 mg/kg per day, FIG. 3): increased survival
- plasma half-life ([1]; iv): 2 to 4 h
- plasma half-life ([1]; sc): 3 to 6 h
- plasma half-life relative to unfractionated heparin [1]: 2-4 times
- survival rates as compared to control mice treated with PBS (S. aureus; data not shown): lower survival rates
- adverse effects (bleeding) (S. aureus; high doses, infected mice): signs of bleeding after only 48 hr

Substance: dermatan sulfate
- toxicity in non infected control mice [2]: non-toxic
- survival versus PBS control (S. aureus strain K2; [5]): substantial survival rate
- survival versus PBS control (S. aureus strain K2; [6]): dramatic survival rate
- clinical state (S. aureus strain K2; 500 μg/day s.c., first twenty four to forty eight hours): did clinically well
- effect of very high dose on infected mice (survival) (S. aureus strain K2; approximately 25 mg/kg body weight, 500 μg/day s.c., FIG. 7A): detrimental; also recorded: poor survival
- weight of surviving animals (S. aureus strain K2; higher-survival dose versus lower doses, FIG. 6B): substantially lost more weight
- protection, high versus lower doses (S. aureus strain K2; s.c., high doses >1 mg/Kg versus <1 mg/Kg, FIGS. 6A-7B): more protective than lower doses
- survival rates with tapered dose (S. aureus strain K2; tapering from 16 mg/kg, halved every day to approximately 0.025 mg/Kg on day 13, FIG. 7B): optimal survival rates
- fibrinogen levels as compared to infected PBS treated mice (Fibrinogen): did not exhibit any significant difference
- protein C levels (protein C; 50 μg/day s.c. (low doses, <10 mg/Kg)): decrease protein C levels; also recorded: broad range of protein c levels that were higher and lower
- protein C levels (protein C; 500 μg/day s.c. (high levels, >20 mg/kg), 20 mg/kg): increase plasma C levels; also recorded: dramatically increase protein C levels
- partial thromboplastin time as compared to infected PBS treated mice ([3]; 50 μg/day (low dose) s.c.): decrease the partial throboplastin time; also recorded: slight decrease
- partial thromboplastin time as compared to PBS treated infected mice ([3]; 500 μg/day s.c.): significantly prolonged
- partial thromboplastin time [3, 7]: prolonged partial thromboplastin time
- prothrombin time as compared to infected PBS treated mice ([4]; 500 μg/day (high dose) s.c.): increase the prothrombin time; also recorded: significant increase in prothrombin time
- prothrombin time [4, 7]: contracted prothrombin times
